Assay results from patent US10703751B2, “Amino-imidazopyridine derivatives as Janus kinase inhibitors and pharmaceutical use thereof” (LEO Pharma A/S, priority 2017, dated 2020).
In brackets after ≈: the same amount, converted by molar mass. Where two headings read alike, the source gives them in different places.

Tests used:
[1] = Aqueous solubility of crystalline material; assay type: physicochemical; details: aqueous medium, aqueous buffer, thermodynamic from solid
Experimental: The aqueous solubility of crystalline Example 3, Example 644 and 641 of WO2011086053 at different pH's was evaluated.

CYP [2] = assay: Reversible CYP inhibition, overall statement; assay type: in vitro ADME; details: substrate concentrations up to 50 μM
Experimental: (§1) Reversible CYP inhibition, time dependent CYP inhibition (TDI) and CYP induction was tested at Cyprotex PLC according to authority guidance.

CYP [3] = assay: Time dependent CYP inhibition (TDI); assay type: in vitro ADME
Experimental: as §1

CYP3A4 [4] = assay: CYP induction, CYP3A4 mRNA expression; assay type: in vitro ADME; details: human, mean fold shift compared to vehicle, read-out: Fold shift in mRNA expr. (CYP 3A4)
Experimental: as §1
(§2) Induction of CYP1A2, CYP2B6 and CYP3A4 gene expression can serve as sensitive representative endpoints for activation of aryl hydrocarbon receptor (AhR), […], respectively. Induction of these nuclear receptors was assessed by measuring the increase in mRNA encoding for […], respectively, at relevant concentrations.
(§3) A >2-fold shift indicate CYP Induction.

CYP1A2 = assay: CYP induction, CYP1A2 mRNA expression; assay type: in vitro ADME; details: human, mean fold shift compared to vehicle, read-out: Fold shift in mRNA expr. (CYP 1A2); for CYP1A2 mRNA fold change vs vehicle at 0.1 μM: >2-fold indicates induction
Experimental: as §1, §2, §3

CYP1A2 gene expression = assay: CYP induction, CYP1A2 mRNA expression; assay type: in vitro ADME; details: Example 3: up to at least a concentration of 10 μM
Experimental: as §1, §2, §3

CYP2B6 [5] = target: CYP2B6 (Homo sapiens (Human), UniProt P20813); assay: Reversible CYP inhibition, 2B6; assay type: in vitro ADME; details: up to 50 μM for Example 3
Experimental: as §1

CYP3A4 [6] = target: CYP3A4 (Homo sapiens (Human), UniProt P08684); assay: Reversible CYP inhibition, 3A4; assay type: in vitro ADME; details: for IC50: up to 50 μM for Example 3, up to 25 μM for Examples 644 and 641
Experimental: as §1

JAK3 = JAK3 (Homo sapiens (Human), UniProt P52333); assay: JAK3 kinase assay (HTRF); assay type: biochemical
Experimental: (§4) Human baculovirus-expressed Janus kinase (JAK) 1, 2, 3 and tyrosin kinase (TYK) 2 were purchased from Carna Biosciences, Inc (#08-144, -045, -046, -147 resp.). All four purified enzymes contain only the catalytic domain. JAK1 (aa 850-1154) and TYK2 (aa 871-1187) are expressed with an N-terminally fused GST-tag, and JAK2 and JAK3 with an N-terminally fused His-tag. Inhibition of phosphorylation of a synthetic peptide was measured in an HTRF-based assay (CisBio #62TKOPEC). First, 75 nL of test compound solution (100% DMSO) was added to a white shallow 384-well plate (NUNC #264706) using a Labcyte ECHO 550 liquid handler. Thereafter, 1 μL of compound dilution buffer (50 mM HEPES, 0.05% bovine serum albumin) and 2 μL of TK solution (TK substrate-biotin in kinase buffer [1× enzymatic buffer from HTRFKinEASE TK kit, 1 mM DTT]) was added. Then, 5 μL kinase-ATP mix (prepared in kinase buffer) was added to the wells and the plates were incubated at RT for 20 (JAK2, 3 and TYK2) to 40 (JAK1) min. For all four kinases a concentration of ATP that corresponded to the Km for ATP was used. The final concentrations of buffers, substrate, kinase and ATP were: JAK1: 50 mM Hepes buffer pH 7.0, 0.01% BSA, 10 mM MgCl2, 1 mM DTT, 7 μM ATP, 50 nM SEB, 1 μM TK Substrate-Biotin and 5 ng/well JAK1; JAK2: 50 mM Hepes buffer pH 7.0, 0.01% BSA, 5 mM MgCl2, 1 mM DTT, 4 μM ATP, 1 μM TK Substrate-Biotin and 0.1 ng/well JAK2; JAK3: 50 mM Hepes buffer pH 7.0, 0.01% BSA, 5 mM MgCl2, 1 mM DTT, 2 μM ATP, 1 μM TK Substrate-Biotin and 0.3 ng/well JAK3; TYK2: 50 mM Hepes buffer pH 7.0, 0.01% BSA, 5 mM MgCl2, 1 mM DTT, 13 μM ATP, 50 nM SEB, 1 μM TK Substrate-Biotin and 0.8 ng/well TYK2. Thereafter, the kinase reaction was stopped by adding 4 μL detection mix (final concentrations: 50 mM Hepes buffer pH 7.0, 0.01% BSA, 0.8 M KF, 20 mM EDTA, 42 nM Streptavidin-XL665 and 1:400 STK Ab Cryptate) and the plates were incubated overnight in the dark. A PerkinElmer Envision reader was used to quantify the HTRF signal using the following filters; 320 nm excitation filter, 665 nm emission filter and a 615 nm 2nd emission filter. A ratio ((665/615)×10^4) was calculated for each well.

JAK1 = JAK1 (Homo sapiens (Human), UniProt P23458); assay: JAK1 kinase assay (HTRF); assay type: biochemical; details: for JAK2/JAK1 ratio / JAK3/JAK1 ratio: ratio of the respective EC50
Experimental: as §4

CYP2C8 = CYP2C8 (Homo sapiens (Human), UniProt P10632); assay: Reversible CYP inhibition, 2C8; assay type: in vitro ADME; details: up to 50 μM for Example 3
Experimental: as §1

CYP2B6 gene expression = assay: CYP induction, CYP2B6 mRNA expression; assay type: in vitro ADME; details: Example 3: up to at least a concentration of 10 μM; Example 644: at 10 μM
Experimental: as §1, §2, §3

CYP2B6 [7] = assay: CYP induction, CYP2B6 mRNA expression; assay type: in vitro ADME; details: human, mean fold shift compared to vehicle, read-out: Fold shift in mRNA expr. (CYP 2B6)
Experimental: as §1, §2, §3

Sequence of JAK3 (P52333 822-1111): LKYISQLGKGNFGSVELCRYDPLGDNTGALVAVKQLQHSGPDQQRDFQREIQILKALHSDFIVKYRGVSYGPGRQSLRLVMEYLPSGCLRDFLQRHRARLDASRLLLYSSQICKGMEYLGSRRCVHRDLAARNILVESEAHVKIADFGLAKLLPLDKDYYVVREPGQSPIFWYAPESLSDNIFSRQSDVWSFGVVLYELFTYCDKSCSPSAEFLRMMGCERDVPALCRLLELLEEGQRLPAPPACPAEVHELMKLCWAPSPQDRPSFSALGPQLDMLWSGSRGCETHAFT
Sequence of CYP3A4 (Homo sapiens (Human), UniProt P08684) (P08684 whole entry): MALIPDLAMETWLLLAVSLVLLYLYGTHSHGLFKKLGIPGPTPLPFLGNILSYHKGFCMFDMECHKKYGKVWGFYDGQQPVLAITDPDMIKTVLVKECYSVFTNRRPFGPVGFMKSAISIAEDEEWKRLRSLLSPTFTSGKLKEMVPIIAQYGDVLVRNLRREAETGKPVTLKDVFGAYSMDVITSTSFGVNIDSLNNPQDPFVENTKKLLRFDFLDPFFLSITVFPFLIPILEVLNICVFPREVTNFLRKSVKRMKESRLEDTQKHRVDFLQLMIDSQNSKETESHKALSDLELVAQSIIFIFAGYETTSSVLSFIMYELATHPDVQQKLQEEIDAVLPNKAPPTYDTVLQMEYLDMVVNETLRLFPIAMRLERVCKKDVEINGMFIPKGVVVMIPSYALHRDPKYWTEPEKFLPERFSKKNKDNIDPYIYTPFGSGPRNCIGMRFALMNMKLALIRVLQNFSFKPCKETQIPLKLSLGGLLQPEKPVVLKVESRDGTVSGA
Sequence of JAK1 (P23458 850-1154): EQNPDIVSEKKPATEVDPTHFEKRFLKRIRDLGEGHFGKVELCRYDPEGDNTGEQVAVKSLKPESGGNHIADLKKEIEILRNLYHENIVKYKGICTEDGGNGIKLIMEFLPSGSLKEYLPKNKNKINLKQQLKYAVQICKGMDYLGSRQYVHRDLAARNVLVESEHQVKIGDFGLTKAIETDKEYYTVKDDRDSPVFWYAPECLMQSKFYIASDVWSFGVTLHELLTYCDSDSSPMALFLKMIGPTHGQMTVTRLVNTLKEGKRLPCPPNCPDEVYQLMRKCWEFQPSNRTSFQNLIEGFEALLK
Sequence of CYP2C8 (P10632 whole entry): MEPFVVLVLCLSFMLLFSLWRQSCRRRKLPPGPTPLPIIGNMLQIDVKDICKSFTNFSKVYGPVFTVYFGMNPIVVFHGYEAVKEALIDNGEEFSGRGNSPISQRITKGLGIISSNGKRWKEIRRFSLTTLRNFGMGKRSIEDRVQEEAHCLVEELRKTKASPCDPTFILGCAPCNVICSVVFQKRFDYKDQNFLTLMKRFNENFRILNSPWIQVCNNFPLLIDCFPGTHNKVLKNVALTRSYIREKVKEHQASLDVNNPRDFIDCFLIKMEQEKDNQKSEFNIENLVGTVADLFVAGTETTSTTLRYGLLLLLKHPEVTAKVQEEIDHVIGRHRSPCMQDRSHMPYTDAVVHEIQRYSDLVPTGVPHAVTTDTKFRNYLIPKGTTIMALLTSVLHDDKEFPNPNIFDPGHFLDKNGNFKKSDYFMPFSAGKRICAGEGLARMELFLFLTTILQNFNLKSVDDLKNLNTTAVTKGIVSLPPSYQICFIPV
Sequence of CYP2B6 (Homo sapiens (Human), UniProt P20813) (P20813 whole entry): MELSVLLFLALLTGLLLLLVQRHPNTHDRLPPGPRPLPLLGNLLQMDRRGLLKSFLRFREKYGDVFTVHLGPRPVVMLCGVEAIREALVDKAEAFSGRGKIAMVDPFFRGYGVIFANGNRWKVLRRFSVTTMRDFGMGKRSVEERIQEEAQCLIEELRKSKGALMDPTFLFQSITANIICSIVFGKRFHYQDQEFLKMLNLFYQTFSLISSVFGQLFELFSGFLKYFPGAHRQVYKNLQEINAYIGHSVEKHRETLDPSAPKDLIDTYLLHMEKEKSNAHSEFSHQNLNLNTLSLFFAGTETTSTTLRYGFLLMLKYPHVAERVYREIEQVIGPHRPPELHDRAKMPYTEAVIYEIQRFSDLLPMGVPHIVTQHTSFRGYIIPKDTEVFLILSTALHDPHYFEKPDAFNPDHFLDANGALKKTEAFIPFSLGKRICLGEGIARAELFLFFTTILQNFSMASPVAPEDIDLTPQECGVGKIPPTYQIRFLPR

Row | Compound | solubility ([1]; pH 2.0, crystalline material) [µg/mL] | solubility ([1]; pH 7.4, crystalline material) [µg/mL] | solubility ([1]; pH 9.0, crystalline material) [µg/mL] | CYP3A4 mRNA fold induction vs vehicle at 5 μM (CYP3A4 [4]) | CYP3A4 mRNA fold induction vs vehicle at 20 μM (CYP3A4 [4]) | CYP3A4 mRNA fold induction vs vehicle at 50 μM (CYP3A4 [4]) | CYP1A2 mRNA fold change vs vehicle at 0.1 μM (CYP1A2) | CYP1A2 mRNA fold change vs vehicle at 1 μM (CYP1A2) | CYP1A2 mRNA fold change vs vehicle at 10 μM (CYP1A2) | IC50 (CYP3A4 [6]) [nM] | EC50 (JAK3; ATP at Km (2 μM)) [nM] | EC50 (JAK1; ATP at Km (7 μM)) [nM] | JAK2/JAK1 ratio (JAK1) | JAK3/JAK1 ratio (JAK1) | CYP2B6 induction (in words) (CYP2B6 gene expression) | fold change in CYP2B6 mRNA expression vs vehicle at 0.1 μM (CYP2B6 [7]) | fold change in CYP2B6 mRNA expression vs vehicle at 1 μM (CYP2B6 [7]) | fold change in CYP2B6 mRNA expression vs vehicle at 10 μM (CYP2B6 [7]) | CYP3A4 inhibition (in words) (CYP3A4 [6]) | other results
1 | CNc1cc2c(cn1)nc([C@@H](C)O)n2[C@H]1CC[C@H](CC#N)CC1 [Example 3, trans-2-[4-[2-[(1R)-1-Hydroxyethyl]-6-(methylamino)imidazo[4,5-c]pyridin-1-yl]cyclohexyl]acetonitrile] | > 346000 | 12300 (≈ 39.2 mM) | 11100 (≈ 35.4 mM) | 1.2 | 1.5 | 2 | 0.8 | 0.7 | 0.8 | > 50000 | 1700 | 3.48 | 51 | 489 | does not cause | 1.1 | 1.5 | 1.7 | – | CYP inhibition (in words) (CYP [2]): no CYP inhibition; time dependent CYP inhibition (in words) (CYP [3]): No time dependent CYP inhibition was indicated; CYP1A2 induction (in words) (CYP1A2 gene expression): does not cause; IC50 (CYP2B6 [5]): > 50000 nM; IC50 (CYP2C8): > 50000 nM
2 | C[C@@H](O)c1nc2cnc3[nH]ccc3c2n1[C@H]1CC[C@H](CC#N)CC1 [Example 644 of WO2011086053] | 2470 (≈ 7.64 mM) | 136 (≈ 0.421 mM) | 9.9 (≈ 0.0306 mM) | – | – | – | – | – | – | 10800 | 13.1 | 0.34 | – | – | CYP2B6 induction at a concentration of 10 μM | – | – | – | weak CYP3A4 inhibition | –
3 | C[C@@H](O)c1nc2cnc3[nH]ccc3c2n1[C@H]1CC[C@H](C#N)CC1 [Example 641 of WO2011086053] | 90000 (≈ 291 mM) | 2260 (≈ 7.31 mM) | 2280 (≈ 7.37 mM) | 1.8 | 2.5 | 4 | 0.9 | 0.8 | 0.9 | 10900 | – | – | 33 | 109 | – | 1 | 1.3 | 1.4 | weak CYP3A4 inhibition | EC50 (JAK3): 739 nM; EC50 (JAK1): 6.81 nM
